In PubChem BioAssay (NCI):
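Following 48 hours of exposure in 96-well plates, responses at five concentrations were used to interpolate endpoints linearly. Here, GI50 denotes the concentration required for 50% inhibition of growth. At the TGI there is no net growth.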

What was measured:
Test in all cases: growth of human tumour cells (NCI), 48 h
SN12C renal = tested on: SN12C renal
UACC-62 melanoma = tested on: UACC-62 melanoma
MALME-3M melanoma = tested on: MALME-3M melanoma
SF-268 CNS = tested on: SF-268 CNS
NCI-H226 lung = tested on: NCI-H226 lung
CAKI-1 renal = tested on: CAKI-1 renal
ACHN renal = tested on: ACHN renal
T-47D breast = tested on: T-47D breast
LOX IMVI melanoma = tested on: LOX IMVI melanoma
DU-145 prostate = tested on: DU-145 prostate
NCI/ADR-RES ovarian = tested on: NCI/ADR-RES ovarian
MDA-MB-435 = tested on: MDA-MB-435
SF-539 CNS = tested on: SF-539 CNS
KM12 colon = tested on: KM12 colon
OVCAR-4 ovarian = tested on: OVCAR-4 ovarian
K-562 leukemia = tested on: K-562 leukemia
NCI-H522 lung = tested on: NCI-H522 lung
PC-3 prostate = tested on: PC-3 prostate
SK-MEL-28 melanoma = tested on: SK-MEL-28 melanoma
A549 NSCLC = tested on: A549 NSCLC
786-0 renal = tested on: 786-0 renal
HCT-15 colon = tested on: HCT-15 colon
OVCAR-8 ovarian = tested on: OVCAR-8 ovarian
SF-295 CNS = tested on: SF-295 CNS
MOLT-4 leukemia = tested on: MOLT-4 leukemia
HOP-92 NSCLC = tested on: HOP-92 NSCLC
SK-OV-3 ovarian = tested on: SK-OV-3 ovarian
IGROV1 ovarian = tested on: IGROV1 ovarian
RXF 393 renal = tested on: RXF 393 renal
HCC-2998 colon = tested on: HCC-2998 colon
OVCAR-5 ovarian = tested on: OVCAR-5 ovarian
SR leukemia = tested on: SR leukemia
NCI-H460 lung = tested on: NCI-H460 lung
A498 renal = tested on: A498 renal
OVCAR-3 ovarian = tested on: OVCAR-3 ovarian
SW-620 colon = tested on: SW-620 colon
CCRF-CEM leukemia = tested on: CCRF-CEM leukemia
UO-31 renal = tested on: UO-31 renal
EKVX NSCLC = tested on: EKVX NSCLC
HOP-62 NSCLC = tested on: HOP-62 NSCLC
SK-MEL-5 melanoma = tested on: SK-MEL-5 melanoma
U251 CNS = tested on: U251 CNS
MCF7 breast = tested on: MCF7 breast
NCI-H23 lung = tested on: NCI-H23 lung
COLO 205 colon = tested on: COLO 205 colon
BT-549 breast = tested on: BT-549 breast
HL-60(TB) leukemia = tested on: HL-60(TB) leukemia
SNB-75 CNS = tested on: SNB-75 CNS
UACC-257 melanoma = tested on: UACC-257 melanoma
M14 melanoma = tested on: M14 melanoma
HT29 colon = tested on: HT29 colon
TK-10 renal = tested on: TK-10 renal
RPMI-8226 leukemia = tested on: RPMI-8226 leukemia
HS 578T breast = tested on: HS 578T breast
SNB-19 CNS = tested on: SNB-19 CNS
MDA-MB-231 breast = tested on: MDA-MB-231 breast

## O=C1C(N2CC2)=C(N2CC2)C(=O)C(N2CC2)=C1N1CC1
SN12C renal
  GI50: < 22.8 nM
  TGI: 1450 nM
UACC-62 melanoma
  GI50: 101 nM
  TGI: 1130 nM
MALME-3M melanoma
  GI50: 225 nM
  TGI: 1310 nM
SF-268 CNS
  GI50: 265 nM
  TGI: 5310 nM
NCI-H226 lung
  GI50: 157 nM
  TGI: 714 nM
CAKI-1 renal
  GI50: 37.1 nM
  TGI: 2180 nM
ACHN renal
  GI50: < 17.9 nM
  TGI: 351 nM
T-47D breast
  GI50: 659 nM
  TGI: 23800 nM
LOX IMVI melanoma
  GI50: < 20.9 nM
  TGI: 307 nM
DU-145 prostate
  TGI: 487 nM
NCI/ADR-RES ovarian
  TGI: 1300 nM
MDA-MB-435
  GI50: 706 nM
  TGI: 2300 nM
SF-539 CNS
  GI50: 104 nM
  TGI: 1240 nM
KM12 colon
  GI50: 696 nM
  TGI: 2720 nM
OVCAR-4 ovarian
  GI50: 2060 nM
  TGI: 7650 nM
K-562 leukemia
  GI50: 785 nM
  TGI: > 100000 nM
NCI-H522 lung
  GI50: 432 nM
  TGI: 2210 nM
PC-3 prostate
  GI50: 863 nM
  TGI: 21100 nM
SK-MEL-28 melanoma
  GI50: 838 nM
  TGI: 2320 nM
A549 NSCLC
  GI50: 59 nM
  TGI: 428 nM
786-0 renal
  GI50: < 28.5 nM
  TGI: 984 nM
HCT-15 colon
  GI50: 150 nM
  TGI: 901 nM
OVCAR-8 ovarian
  GI50: 344 nM
  TGI: 6990 nM
SF-295 CNS
  GI50: < 21.1 nM
  TGI: 1000 nM
MOLT-4 leukemia
  GI50: 765 nM
  TGI: > 100000 nM
HOP-92 NSCLC
  GI50: 2990 nM
  TGI: 29700 nM
SK-OV-3 ovarian
  GI50: 123 nM
  TGI: 891 nM
IGROV1 ovarian
  GI50: 312 nM
  TGI: 2380 nM
RXF 393 renal
  GI50: 218 nM
  TGI: 1010 nM
HCC-2998 colon
  GI50: 168 nM
  TGI: 569 nM
OVCAR-5 ovarian
  GI50: 2290 nM
  TGI: 6920 nM
SR leukemia
  GI50: 34.5 nM
  TGI: > 100000 nM
NCI-H460 lung
  TGI: 178 nM
A498 renal
  GI50: 348 nM
  TGI: 1190 nM
OVCAR-3 ovarian
  GI50: 1040 nM
  TGI: 3460 nM
SW-620 colon
  GI50: 419 nM
  TGI: 6090 nM
CCRF-CEM leukemia
  GI50: 1820 nM
  TGI: > 100000 nM
UO-31 renal
  GI50: < 30.4 nM
  TGI: 606 nM
EKVX NSCLC
  GI50: 1700 nM
  TGI: 6880 nM
HOP-62 NSCLC
  GI50: 82.2 nM
  TGI: 1050 nM
SK-MEL-5 melanoma
  GI50: 144 nM
  TGI: 359 nM
U251 CNS
  GI50: 275 nM
  TGI: 3180 nM
MCF7 breast
  GI50: < 21.8 nM
  TGI: 1500 nM
NCI-H23 lung
  GI50: < 23.3 nM
  TGI: 245 nM
COLO 205 colon
  GI50: 163 nM
  TGI: 404 nM
BT-549 breast
  GI50: 318 nM
  TGI: 1530 nM
HL-60(TB) leukemia
  GI50: 201 nM
  TGI: 8640 nM
SNB-75 CNS
  GI50: 158 nM
  TGI: 1110 nM
UACC-257 melanoma
  GI50: 109 nM
  TGI: 749 nM
M14 melanoma
  GI50: < 21.1 nM
  TGI: 199 nM
HT29 colon
  GI50: 181 nM
  TGI: 15100 nM
TK-10 renal
  GI50: 2590 nM
  TGI: > 100000 nM
RPMI-8226 leukemia
  GI50: 2740 nM
  TGI: 17200 nM
HS 578T breast
  GI50: 1280 nM
  TGI: 6210 nM
SNB-19 CNS
  GI50: 140 nM
  TGI: 4320 nM
MDA-MB-231 breast
  GI50: 14900 nM
  TGI: 56100 nM
